Test results from ChEMBL document CHEMBL1133811, “Small molecule/nucleic acid affinity chromatography: application for the identification of telomerase inhibitors which target its key RNA/DNA heteroduplex” (Bioorg Med Chem Lett, 2001).
Numbered stars: 1 amine (or outer) side, 2 acyl side, 3 side chain; on linkers, the order of the positions; unused ones are H or OH. Bridge positions count the residues as written; N and C are the ends. Square brackets hold non-standard residues; d marks the D form. Peptide text beside a SMILES is read from it. I, II: the chains in the order shown. Actinocin(9to1) = Cc1c2oc3c(C)ccc(C(=O)[*:1])c3nc-2c(C(=O)[*:2])c(N)c1=O; NMeV = CN[C@H](C(=O)O)C(C)C; Sar = CNCC(=O)O

How the values were obtained:
[1] = biological target: T1, Telomerase reverse transcriptase (Homo sapiens, UniProt O14746); experiment: Inhibitory activity against telomerase at 50 uM concentration (Compound released from RNA/DNA heteroduplex derivatized resin [sequence (TTAGGG)3)
[2] = biological target: T1, Telomerase reverse transcriptase; experiment: Inhibitory activity against telomerase at 50 uM concentration (Compound released from DNA/DNA heteroduplex derivatized resin [sequence (TTAGGG)3)
[3] = biological target: T1, Telomerase reverse transcriptase; experiment: Inhibitory activity against telomerase at 50 uM concentration (Compound released from underivatized resin
[4] = biological target: T1, Telomerase reverse transcriptase; experiment: Inhibitory activity against telomerase (Compound released from underivatized resin
[5] = biological target: T1, Telomerase reverse transcriptase; experiment: Inhibitory activity against telomerase (Compound released from RNA/DNA heteroduplex derivatized resin [sequence (TTAGGG)3)
[6] = biological target: T1, Telomerase reverse transcriptase; experiment: Inhibitory activity against telomerase (Compound released from DNA/DNA heteroduplex derivatized resin [sequence (TTAGGG)3)

T1 sequence (O14746 whole entry): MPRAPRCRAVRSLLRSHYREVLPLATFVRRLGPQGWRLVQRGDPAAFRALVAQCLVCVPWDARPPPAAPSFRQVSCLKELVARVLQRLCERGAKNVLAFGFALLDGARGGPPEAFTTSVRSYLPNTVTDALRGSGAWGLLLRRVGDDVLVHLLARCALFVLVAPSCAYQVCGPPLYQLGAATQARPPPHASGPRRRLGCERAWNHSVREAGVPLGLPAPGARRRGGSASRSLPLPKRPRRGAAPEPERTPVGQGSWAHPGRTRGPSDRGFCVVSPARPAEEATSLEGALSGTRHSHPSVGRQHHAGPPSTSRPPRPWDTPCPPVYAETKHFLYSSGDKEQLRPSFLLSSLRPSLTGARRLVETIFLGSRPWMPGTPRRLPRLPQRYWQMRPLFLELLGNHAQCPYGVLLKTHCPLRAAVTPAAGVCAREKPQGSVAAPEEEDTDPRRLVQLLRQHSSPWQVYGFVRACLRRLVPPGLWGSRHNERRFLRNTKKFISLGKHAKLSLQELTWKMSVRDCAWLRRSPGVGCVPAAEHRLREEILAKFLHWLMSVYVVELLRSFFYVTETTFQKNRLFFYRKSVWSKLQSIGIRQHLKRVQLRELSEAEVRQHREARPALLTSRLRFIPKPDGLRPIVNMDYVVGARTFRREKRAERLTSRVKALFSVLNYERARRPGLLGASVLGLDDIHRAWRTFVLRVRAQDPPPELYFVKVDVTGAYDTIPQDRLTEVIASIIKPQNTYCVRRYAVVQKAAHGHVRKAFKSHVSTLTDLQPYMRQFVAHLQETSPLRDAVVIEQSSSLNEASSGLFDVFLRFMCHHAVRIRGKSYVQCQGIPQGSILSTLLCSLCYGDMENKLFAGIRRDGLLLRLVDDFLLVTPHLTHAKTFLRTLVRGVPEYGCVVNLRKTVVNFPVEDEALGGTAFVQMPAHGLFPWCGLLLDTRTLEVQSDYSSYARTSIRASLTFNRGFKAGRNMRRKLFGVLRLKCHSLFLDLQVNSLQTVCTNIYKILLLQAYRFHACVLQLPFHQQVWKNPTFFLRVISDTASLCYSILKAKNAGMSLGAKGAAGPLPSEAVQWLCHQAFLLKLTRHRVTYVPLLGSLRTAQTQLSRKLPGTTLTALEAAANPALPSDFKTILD

Row | Compound | inhibition [1] | inhibition [2] | inhibition [3] | IC50 [4] | IC50 [5] | IC50 [6]
1 | COc1cccc2c1C(=O)c1c(O)c3c(c(O)c1C2=O)C[C@@](O)(C(=O)CO)C[C@@H]3O[C@H]1C[C@H](N)[C@H](O)[C@H](C)O1 | < 50% | < 50% | < 50% |  |  | 
2 | Cc1cc2cc3cc(C)c(N)cc3nc2cc1N |  |  |  | 21.7 µM | 21.7 µM | 21.7 µM
3 | CCOc1ccc2nc3cc(N)ccc3c(N)c2c1 [ETHACRIDINE] |  |  |  | 8.2 µM | 8.2 µM | 8.2 µM
4 | Cc1c2oc3c(C)ccc(C(=O)N[C@@H]4C(=O)N[C@H](C(C)C)C(=O)N5CCC[C@H]5C(=O)N(C)CC(=O)N(C)[C@@H](C(C)C)C(=O)O[C@@H]4C)c3nc-2c(C(=O)N[C@@H]2C(=O)N[C@H](C(C)C)C(=O)N3CCC[C@H]3C(=O)N(C)CC(=O)N(C)[C@@H](C(C)C)C(=O)O[C@@H]2C)c(N)c1=O (I: T[dV]P[Sar][NMeV] / II: T[dV]P[Sar][NMeV]; ester I:1-I:C, II:1-II:C; linker I:N-II:N via Actinocin(9to1)) | < 50% | < 50% | < 50% |  |  | 
5 | CC[n+]1c(-c2ccccc2)c2cc(N)ccc2c2ccc(N)cc21 [HOMIDIUM BROMIDE] |  |  |  | 3.3 µM | 3.3 µM | 3.3 µM
6 | COc1cccc2c1C(=O)c1c(O)c3c(c(O)c1C2=O)C[C@@](O)(C(C)=O)C[C@@H]3O[C@H]1C[C@H](N)[C@H](O)[C@H](C)O1 | < 50% | < 50% | < 50% |  |  | 
7 | Cc1c2oc3c(C)c(N)cc(C(=O)N[C@@H]4C(=O)N[C@H](C(C)C)C(=O)N5CCC[C@H]5C(=O)N(C)CC(=O)N(C)[C@@H](C(C)C)C(=O)O[C@@H]4C)c3nc-2c(C(=O)N[C@@H]2C(=O)N[C@H](C(C)C)C(=O)N3CCC[C@H]3C(=O)N(C)CC(=O)N(C)[C@@H](C(C)C)C(=O)O[C@@H]2C)c(N)c1=O | < 50% | < 50% | < 50% |  |  | 
8 | CN(C)c1ccc2cc3ccc(N(C)C)cc3nc2c1 [ACRIDINE ORANGE] |  |  |  | 12.2 µM | 12.2 µM | 12.2 µM
